# Laboratory results: patent US8613914B2, “Peptidomimetic sulfamide compounds and antiviral uses thereof” (Novartis AG, priority 2009, dated 2013)
# Molecular target: HCV NS3-4A serine protease (full-length NS3-4A protein) (Hepatitis C virus genotype 1a (isolate 1) (HCV), UniProt P26664)
# Assay: HCV NS3-4A protease assay
# Type: biochemical, HCV genotype 1a
# Settings: strain HCV-1, fluorogenic peptide substrate, read-out: Protease assay Ex. 12 IC50
# Experimental: The inhibitory activity of certain compounds of Table A against HCV NS3-4A serine protease is determined in a homogenous assay using the full-length NS3-4A protein (genotype 1a, strain HCV-1) and a commercially available internally-quenched fluorogenic peptide substrate as described by Taliani, M., et al. 1996 Anal. Biochem. 240:60-67, which is incorporated by reference in its entirety.
# Sequence of HCV NS3-4A serine protease (full-length NS3-4A protein) (P26664 1027-1657): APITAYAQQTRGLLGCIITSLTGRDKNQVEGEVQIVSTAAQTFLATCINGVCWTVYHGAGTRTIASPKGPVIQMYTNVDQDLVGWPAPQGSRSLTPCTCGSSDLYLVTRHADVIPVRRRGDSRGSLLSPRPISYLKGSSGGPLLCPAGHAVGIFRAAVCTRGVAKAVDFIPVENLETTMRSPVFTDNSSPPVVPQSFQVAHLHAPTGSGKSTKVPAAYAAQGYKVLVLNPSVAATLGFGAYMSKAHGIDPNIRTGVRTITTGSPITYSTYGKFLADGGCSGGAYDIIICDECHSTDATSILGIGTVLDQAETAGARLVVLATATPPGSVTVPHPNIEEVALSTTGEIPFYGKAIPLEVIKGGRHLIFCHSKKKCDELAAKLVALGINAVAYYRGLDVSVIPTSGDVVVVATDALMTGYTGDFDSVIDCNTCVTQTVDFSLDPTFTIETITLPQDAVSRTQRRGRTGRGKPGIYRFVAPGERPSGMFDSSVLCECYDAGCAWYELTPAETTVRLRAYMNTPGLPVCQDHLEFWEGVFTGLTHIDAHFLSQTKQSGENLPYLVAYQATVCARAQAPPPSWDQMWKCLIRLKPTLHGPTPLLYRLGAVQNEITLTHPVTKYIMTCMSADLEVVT
# Sequence of HCV NS3-4A serine protease (full-length NS3-4A protein) (P26664 1658-1711 partner): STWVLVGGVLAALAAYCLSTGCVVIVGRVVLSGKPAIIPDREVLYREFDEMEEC
row,SMILES,IC50
1,"C=C[C@@H]1C[C@]1(NC(=O)[C@@H]1C[C@@]2(CN1C(=O)[C@@H](NC(=O)[C@@H](NC(=O)[C@@H]1CCCCN1C(C)C)C1CCCCC1)C1CCCC1)C(C)(C)C21CCC1)C(=O)NS(=O)(=O)N1CCCC1 [Compound 66, (5R,8S)-7-[(2S)-2-{[(2S)-2-cyclohexyl-2-({[(2S)-1-isopropylpiperidin-2-yl]carbonyl}amino)acetyl]amino}-2-cyclopentylacetyl]-10,10-dimethyl-N-{(1R,2S)-1-[(pyrrolidin-1-ylsulfonyl)carbamoyl]-2-vinylcyclopropyl}-7-azadispiro[3.0.4.1]decane-8-carboxamide]",5.5 nM
2,"C=C[C@@H]1C[C@]1(NC(=O)C1C[C@@]2(CN1C(=O)[C@@H](NC(=O)[C@@H](NC(=O)[C@@H]1CCCCN1C(C)C)C(C)(C)C)C1CCOCC1)C(C)(C)C21CCC1)C(=O)NS(=O)(=O)N1CCCC1 (stereo partly drawn) [Compound 67, (5R)-7-[(2S)-2-[(N-{[(2S)-1-isopropylpiperidin-2-yl]carbonyl}-3-methyl-L-valyl)amino]-2-(tetrahydro-2H-pyran-4-yl)acetyl]-10,10-dimethyl-N-{(1R,2S)-1-[(pyrrolidin-1-ylsulfonyl)carbamoyl]-2-vinylcyclopropyl}-7-azadispiro[3.0.4.1]decane-8-carboxamide]",20 nM
3,"C=C[C@@H]1C[C@]1(NC(=O)C1C[C@@]2(CN1C(=O)[C@@H](NC(=O)c1cccc(C(=O)NCCC)c1)C(C)(C)C)C(C)(C)C21CCC1)C(=O)NS(=O)(=O)N1CCCC1 (stereo partly drawn) [Compound 68, N-[(1S)-1-{[(5R)-10,10-dimethyl-8-({(1R,2S)-1-[(pyrrolidin-1-ylsulfonyl)carbamoyl]-2-vinylcyclopropyl}carbamoyl)-7-azadispiro[3.0.4.1]dec-7-yl]carbonyl}-2,2-dimethylpropyl]-N′-propylisophthalamide]",950 nM
4,"C=C[C@@H]1C[C@]1(NC(=O)[C@@H]1C[C@@]2(CN1C(=O)[C@@H](NC(=O)[C@@H](NC(=O)c1cccc(N(C)C)n1)C1CCCCC1)C(C)(C)C)C(C)(C)C21CCC1)C(=O)NS(=O)(=O)N1CCCC1 [Compound 69, (5R,8S)-7-[(2S)-2-{[(2S)-2-cyclohexyl-2-({[6-(dimethylamino)pyridin-2-yl]carbonyl}amino)acetyl]amino}-3,3-dimethylbutanoyl]-10,10-dimethyl-N-{(1R,2S)-1-[(pyrrolidin-1-ylsulfonyl)carbamoyl]-2-vinylcyclopropyl}-7-azadispiro[3.0.4.1]decane-8-carboxamide]",50 nM
5,"C=C[C@@H]1C[C@]1(NC(=O)[C@@H]1C[C@@]2(CN1C(=O)[C@@H](NC(=O)[C@@H](NC(=O)c1cccnc1N(C)C)C1CCCCC1)C(C)(C)C)C(C)(C)C21CCC1)C(=O)NS(=O)(=O)N1CCCC1 [Compound 70, (5R,8S)-7-[(2S)-2-{[(2S)-2-cyclohexyl-2-({[2-(dimethylamino)pyridin-3-yl]carbonyl}amino)acetyl]amino}-3,3-dimethylbutanoyl]-10,10-dimethyl-N-{(1R,2S)-1-[(pyrrolidin-1-ylsulfonyl)carbamoyl]-2-vinylcyclopropyl}-7-azadispiro[3.0.4.1]decane-8-carboxamide]",35 nM
6,"C=C[C@@H]1C[C@]1(NC(=O)[C@@H]1C[C@@]2(CN1C(=O)[C@@H](NC(=O)[C@@H](NC(=O)[C@@H]1CCCN1CC(F)(F)F)C1CCCCC1)C1CCOCC1)C(C)(C)C21CCC1)C(=O)NS(=O)(=O)N1CCCC1 [Compound 71, (5R,8S)-7-[(2S)-2-{[(2S)-2-cyclohexyl-2-({[(2S)-1-(2,2,2-trifluoroethyl)pyrrolidin-2-yl]carbonyl}amino)acetyl]amino}-2-(tetrahydro-2H-pyran-4-yl)acetyl]-10,10-dimethyl-N-{(1R,2S)-1-[(pyrrolidin-1-ylsulfonyl)carbamoyl]-2-vinylcyclopropyl}-7-azadispiro[3.0.4.1]decane-8-carboxamide]",40 nM
7,"C=C[C@@H]1C[C@]1(NC(=O)[C@@H]1C[C@@]2(CN1C(=O)[C@@H](NC(=O)[C@@H](NC(=O)[C@@H]1CCCN1CC(F)F)C1CCCCC1)C1CCOCC1)C(C)(C)C21CCC1)C(=O)NS(=O)(=O)N1CCCC1 [Compound 72, (5R,8S)-7-[(2S)-2-{[(2S)-2-cyclohexyl-2-({[(2S)-1-(2,2-difluoroethyl)pyrrolidin-2-yl]carbonyl}amino)acetyl]amino}-2-(tetrahydro-2H-pyran-4-yl)acetyl]-10,10-dimethyl-N-{(1R,2S)-1-[(pyrrolidin-1-ylsulfonyl)carbamoyl]-2-vinylcyclopropyl}-7-azadispiro[3.0.4.1]decane-8-carboxamide]",70 nM
8,"C=C[C@@H]1C[C@]1(NC(=O)[C@@H]1C[C@@]2(CN1C(=O)[C@@H](NC(=O)[C@@H](NC(=O)[C@@H]1CCCN1CCF)C1CCCCC1)C1CCOCC1)C(C)(C)C21CCC1)C(=O)NS(=O)(=O)N1CCCC1 [Compound 73, (5R,8S)-7-[(2S)-2-{[(2S)-2-cyclohexyl-2-({[(2S)-1-(2-fluoroethyl)pyrrolidin-2-yl]carbonyl}amino)acetyl]amino}-2-(tetrahydro-2H-pyran-4-yl)acetyl]-10,10-dimethyl-N-{(1R,2S)-1-[(pyrrolidin-1-ylsulfonyl)carbamoyl]-2-vinylcyclopropyl}-7-azadispiro[3.0.4.1]decane-8-carboxamide]",15 nM
9,"C=C[C@@H]1C[C@]1(NC(=O)[C@@H]1C[C@@]2(CN1C(=O)[C@@H](NC(=O)[C@@H](NC(=O)[C@@H]1CCCCN1CC(F)F)C1CCCCC1)C1CCOCC1)C(C)(C)C21CCC1)C(=O)NS(=O)(=O)N1CCCC1 [Compound 74, (5R,8S)-7-[(2S)-2-{[(2S)-2-cyclohexyl-2-({[(2S)-1-(2,2-difluoroethyl)piperidin-2-yl]carbonyl}amino)acetyl]amino}-2-(tetrahydro-2H-pyran-4-yl)acetyl]-10,10-dimethyl-N-{(1R,2S)-1-[(pyrrolidin-1-ylsulfonyl)carbamoyl]-2-vinylcyclopropyl}-7-azadispiro[3.0.4.1]decane-8-carboxamide]",65 nM
10,"C=C[C@@H]1C[C@]1(NC(=O)[C@@H]1C[C@@]2(CN1C(=O)[C@@H](NC(=O)[C@@H](NC(=O)[C@@H]1CCCCN1CCF)C1CCCCC1)C1CCOCC1)C(C)(C)C21CCC1)C(=O)NS(=O)(=O)N1CCCC1 [Compound 75, (5R,8S)-7-[(2S)-2-{[(2S)-2-cyclohexyl-2-({[(2S)-1-(2-fluoroethyl)piperidin-2-yl]carbonyl}amino)acetyl]amino}-2-(tetrahydro-2H-pyran-4-yl)acetyl]-10,10-dimethyl-N-{(1R,2S)-1-[(pyrrolidin-1-ylsulfonyl)carbamoyl]-2-vinylcyclopropyl}-7-azadispiro[3.0.4.1]decane-8-carboxamide]",30 nM
11,"C=C[C@@H]1C[C@]1(NC(=O)[C@@H]1C[C@@]2(CN1C(=O)[C@@H](NC(=O)[C@@H](NC(=O)[C@@H]1CCCN1C(=O)OCCF)C1CCCCC1)C1CCOCC1)C(C)(C)C21CCC1)C(=O)NS(=O)(=O)N1CCCC1 [Compound 76, 2-fluoroethyl(2S)-2-{[(1S)-1-cyclohexyl-2-{[(1S)-2-[(5R,8S)-10,10-dimethyl-8-({(1R,2S)-1-[(pyrrolidin-1-ylsulfonyl)carbamoyl]-2-vinylcyclopropyl}carbamoyl)-7-azadispiro[3.0.4.1]dec-7-yl]-2-oxo-1-(tetrahydro-2H-pyran-4-yl)ethyl]amino}-2-oxoethyl]carbamoyl}pyrrolidine-1-carboxylate]",80 nM
12,"C=C[C@@H]1C[C@]1(NC(=O)[C@@H]1C[C@@]2(CN1C(=O)[C@@H](NC(=O)[C@@H](NC(=O)[C@@H]1CCCCN1CC)C1CCCCC1)C(C)(C)C)C(C)(C)C21CCC1)C(=O)NS(=O)(=O)N(CC)CC [Compound 77, (5R,8S)-7-[(2S)-2-{[(2S)-2-cyclohexyl-2-({[(2S)-1-ethylpiperidin-2-yl]carbonyl}amino)acetyl]amino}-3,3-dimethylbutanoyl]-N-[(1R,2S)-1-{[(diethylamino)sulfonyl]carbamoyl}-2-vinylcyclopropyl]-10,10-dimethyl-7-azadispiro[3.0.4.1]decane-8-carboxamide]",0.9 nM
13,"C=C[C@@H]1C[C@]1(NC(=O)C1C[C@@]2(CN1C(=O)[C@@H](NC(=O)C1CCCNC1=O)C(C)(C)C)C(C)(C)C21CCC1)C(=O)NS(=O)(=O)N1CCCC1 (stereo partly drawn) [Compound 78, (5R)-7-[(2S)-3,3-dimethyl-2-{[(2-oxopiperidin-3-yl)carbonyl]amino}butanoyl]-10,10-dimethyl-N-{(1R,2S)-1-[(pyrrolidin-1-ylsulfonyl)carbamoyl]-2-vinylcyclopropyl}-7-azadispiro[3.0.4.1]decane-8-carboxamide]",650 nM
14,"C=C[C@@H]1C[C@]1(NC(=O)[C@@H]1C[C@@]2(CN1C(=O)[C@@H](NC(=O)[C@@H](NC(=O)[C@@H]1CCCCN1CC)C1CCCC1)C(C)(C)C)C(C)(C)C21CCC1)C(=O)NS(=O)(=O)N(CC)CC [Compound 81, (5R,8S)-7-[(2S)-2-{[(2S)-2-cyclopentyl-2-({[(2S)-1-ethylpiperidin-2-yl]carbonyl}amino)acetyl]amino}-3,3-dimethylbutanoyl]-N-[(1R,2S)-1-{[(diethylamino)sulfonyl]carbamoyl}-2-vinylcyclopropyl]-10,10-dimethyl-7-azadispiro[3.0.4.1]decane-8-carboxamide]",4 nM
15,"C=C[C@@H]1C[C@]1(NC(=O)[C@@H]1C[C@@]2(CN1C(=O)[C@@H](NC(=O)[C@@H](NC(=O)[C@@H]1CCCCN1C(C)C)C1CCCCC1)C(C)(C)C)C(C)(C)C21CCC1)C(=O)NS(=O)(=O)N(C)CC(F)F [Compound 83, (5R,8S)-7-[(2S)-2-{[(2S)-2-cyclohexyl-2-({[(2S)-1-isopropylpiperidin-2-yl]carbonyl}amino)acetyl]amino}-3,3-dimethylbutanoyl]-N-[(1R,2S)-1-({[(2,2-difluoroethyl)(methyl)amino]sulfonyl}carbamoyl)-2-vinylcyclopropyl]-10,10-dimethyl-7-azadispiro[3.0.4.1]decane-8-carboxamide]",2 nM
